Converted amounts (≈) assume the structure as drawn. “And” between values parts separate entries of the source, which are not always exact repeats. Equal values may be shown once. Read-outs that look alike come from different tables or passages of the source.
How the values were obtained:
[1] = test system: M. pneumoniae thyA mutant (lacking TS activity); assay: microbe, parasite or virus in culture; assay type: cell-based, Mycoplasma pneumoniae; settings: for MIC: Mycoplasmoides pneumoniae, read-out: thyA mutant MIC
Protocol: (§1) A series dilution of each compound in Mycoplasma growth medium was added to Mpn cultures in 96-well plates. The plates were sealed and incubated at 37°C. Mpn growth was monitored by using growth index value e.g. the ratio of absorbance at 450 nm and 560 nm of the culture medium. Thirty nucleoside and nucleobase analogs and a nucleoside transporter inhibitor were included, and two Mpn strains, wild type and a thyA mutant (lacking TS activity), were used.
(§2) Nucleoside and nucleobase analogs were dissolved in dimethyl sulfoxide (DMSO) as stock solutions and diluted with Mpn culture medium to the desired concentration immediately prior to use.
(§3) Mpn laboratory strain M129 wild type and a thyA mutant strain [31] were used in this study. Mpn was cultured at 37°C in a CO2 incubator using 75 cm^2 tissue culture flasks containing 50 ml Hayflick’s medium, and harvested at day 4 when the medium color change was observed. The cells were harvested and the pellet was resuspended in 6 ml fresh medium and the cfu/ml was determined by serial dilution (10-fold) and plating on broth agar plate. Colonies was counted and cfu/ml was calculated.
(§4) Inhibition studies were performed in 96-well plates containing 200 μl Mpn culture (approximately 10^6 cfu ml^-1) in Hayflick’s medium and 200 μl each compound in series dilutions (2-fold) with the growth medium, with three to four replicas. The plates were sealed with clear adhesive sheets and incubated at 37°C incubator. Absorbance ratio at 450 nm and 560 nm was used as Mpn growth index, which was measured daily, and by visual detection for at least 8 days, as previously described. […] The MICs (minimal inhibitory concentration required to inhibit Mpn growth to 90%) were determined as the lowest concentration at which the growth index was ≈ 10% of the control values (at the time when the control culture medium color turned yellow), essentially as described.

[2] = test system: M. pneumoniae wild type (laboratory strain M129); assay: Mpn growth inhibition in 96-well plates (growth index A450/A560), wild type strain; assay type: cell-based, Mycoplasma pneumoniae; settings: for MIC: Mycoplasmoides pneumoniae, read-out: Wild type MIC; for MIC (Mpn growth): 90% growth inhibition
Protocol: as §1, §2, §3, §4

[3] = test system: Mpn wild type cells; assay: Uptake and metabolism of tritium labelled natural nucleoside and nucleobases in the presence of analogs; assay type: cell-based, Mycoplasma pneumoniae; settings: 10 μM analog, 70 hours; for [3H]-Ade Total uptake / [3H]-Gua Total uptake / [3H]-Hx Total uptake / [3H]-Ura Total uptake / [3H]-dT Total uptake: 37°C, radioactivity in cells / total added; for [3H]-Ade Incorporation / [3H]-Gua Incorporation / [3H]-Hx Incorporation / [3H]-Ura Incorporation / [3H]-dT Incorporation: acid insoluble fraction / total in cells
Protocol: The cells were harvested and analyzed essentially as described. Analogs used were dipyridamole, 6-thioguanine (6-TG), trifluorothymidine (TFT), gemcitabine (dFdC) and 5-fluorodeoxyuridine (5FdU). Total uptake is the percent of radioactivity recovered in the cells divided by total radioactivity added to the growth medium. Percent of acid insoluble (radioactivity found in DNA and RNA) was also calculated. These experiments were done more than three times and data are given as mean ± SD.

[4] = target: T1, human HPRT (Homo sapiens, UniProt P00492); assay: HPRT inhibition, DE-81 filter paper assay; assay type: biochemical
T1 construct: made in house
T1 sequence (P00492 1-218): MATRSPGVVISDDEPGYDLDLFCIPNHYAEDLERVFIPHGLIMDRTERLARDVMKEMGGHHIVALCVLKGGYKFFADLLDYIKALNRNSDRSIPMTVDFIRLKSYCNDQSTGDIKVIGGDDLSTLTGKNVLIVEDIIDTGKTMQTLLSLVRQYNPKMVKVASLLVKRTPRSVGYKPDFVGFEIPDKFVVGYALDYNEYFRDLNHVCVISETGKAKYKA
Protocol: (§5) The reaction was initiated by addition of the enzyme, and at 0, 5, 10, and 15 min intervals, 10 μl reaction mixture was withdrawn and spotted onto the DE81 filter paper and dried. The unreacted substrate was washed and the products were eluted and counted in a liquid scintillation counter. With [^3H]-Gua as substrate the reaction (in a total of 25 μl) was initiated by addition of the enzyme (10 μl), incubated at 37°C for 2 min, stopped by addition of 1 M HCl (10 μl), and placed immediately on ice. After neutralization, 15 μl of the mixture was spotted onto the DE81-filter paper. The filters were then washed, and the products were eluted and counted by liquid scintillation.

[5] = target: T2, Mpn HPRT (Mycoplasmoides pneumoniae, UniProt P75119); assay: biochemical
T2 sequence (P75119 1-175): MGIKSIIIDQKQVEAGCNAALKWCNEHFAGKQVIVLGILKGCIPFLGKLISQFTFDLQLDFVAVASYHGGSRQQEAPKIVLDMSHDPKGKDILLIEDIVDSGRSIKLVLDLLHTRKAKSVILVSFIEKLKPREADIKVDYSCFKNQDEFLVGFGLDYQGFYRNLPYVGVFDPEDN
Protocol: as §5

[6] = target: T2, Mpn HPRT; settings: as substrate of Mpn HPRT
Protocol: Data are from at least three independent measurements and are presented as mean ± standard deviation (SD).
as §5

[7] = substrate hypoxanthine, 10 μM [3H]-hypoxanthine
[8] = minimal concentration producing 90% inhibition, wild type Mpn

Cc1cn([C@H]2C[C@H](N=[N+]=[N-])[C@@H](CO)O2)c(=O)[nH]c1=O [Zidovudine]
MIC [1]: 7.8 µg/mL (≈ 29.2 µM)
MIC [2]: 7.8 µg/mL (≈ 29.2 µM)

Nc1nc2nc[nH]c2c(=S)[nH]1 [6-thioguanine (6-TG), 6-thioguanine]
[3H]-Ade Total uptake [3]: 0.66±0.1%
[3H]-Gua Total uptake [3]: 0.080±0.002%
[3H]-Hx Total uptake [3]: 0.005 ± 0.0004%
[3H]-Ura Total uptake [3]: 0.21±0.003%
[3H]-dT Total uptake [3]: 7.9±0.6%
[3H]-Ade Incorporation [3]: 46±3%
[3H]-Gua Incorporation [3]: 67±3%
[3H]-Hx Incorporation [3]: 43±6%
[3H]-Ura Incorporation [3]: 39±8%
[3H]-dT Incorporation [3]: 97.4±0.7%
MIC [1]: 0.2 µg/mL (≈ 1.2 µM)
IC50 ([4]; 10 μM [3H]-guanine, read-out: IC50 Human HPRT, substrate guanine): 39.8 ± 4 µM
IC50 ([4]; IC50 Human HPRT, substrate hypoxanthine, 10 μM [3H]-hypoxanthine): 20.5 ± 6.5 µM
IC50 ([5]; substrate guanine, 10 μM [3H]-guanine): 3.2 µM and 3.16 µM
IC50 [5, 7]: 3.5 ± 0.5 µM
MIC [2]: 0.2 µg/mL (≈ 1.2 µM)
MIC (Mpn growth) ([2]; strain not specified): 0.20 µg/mL (≈ 1.2 µM)

CCc1nc(N)nc(N)c1-c1ccc(Cl)cc1 [Pyrimethamine]
MIC [1]: > 500 µg/mL
MIC [2]: > 500 µg/mL

CC(C)[C@H](N)C(=O)OCCOCn1cnc2c(=O)[nH]c(N)nc21 [Valacyclovir]
MIC [1]: > 500 µg/mL
MIC [2]: > 500 µg/mL
Inhibition of Mpn growth (in words) ([2]; strain not specified): did not inhibit Mpn growth

Nc1nc(=O)[nH]cc1F [5-fluorocytosine]
MIC [1]: 31.2 µg/mL (≈ 242 µM)
MIC [2]: 31.2 µg/mL (≈ 242 µM)

OCCN(CCO)c1nc(N2CCCCC2)c2nc(N(CCO)CCO)nc(N3CCCCC3)c2n1 [Dipyridamole]
[3H]-Ade Total uptake [3]: 0.67±0.1%
[3H]-Gua Total uptake [3]: 0.09±0.002%
[3H]-Hx Total uptake [3]: 0.008± 0.001%
[3H]-Ura Total uptake [3]: 0.20±0.003%
[3H]-dT Total uptake [3]: 7.2±1.1%
[3H]-Ade Incorporation [3]: 47±1%
[3H]-Gua Incorporation [3]: 56±6%
[3H]-Hx Incorporation [3]: 44±3%
[3H]-Ura Incorporation [3]: 38±6%
[3H]-dT Incorporation [3]: 97.0±1.3%
MIC [1]: 1.9 µg/mL (≈ 3.77 µM)
MIC [2]: 1.9 µg/mL (≈ 3.77 µM)
MIC (Mpn growth) ([2]; strain not specified): approximately 2 μg ml^-1

NC(=O)c1ncn([C@@H]2O[C@H](CO)[C@@H](O)[C@H]2O)n1 [Ribavirin]
MIC [1]: > 500 µg/mL
MIC [2]: 62.5 µg/mL (≈ 256 µM)
Inhibition of wild type Mpn growth (in words) ([2]; wild type Mpn): inhibited wild type Mpn

Cn1c(=O)c2[nH]cnc2n(C)c1=O [Theophylline]
MIC [1]: > 500 µg/mL
IC50 [4]: 1580 ± 134 µM
IC50 [5, 7]: > 4000 µM
MIC [2]: > 500 µg/mL

Nc1ncnc2c1ncn2[C@@H]1O[C@H](CO)[C@@H](O)[C@@H]1O [Arabinosyl adenine]
MIC [1]: > 500 µg/mL
MIC [2, 8]: > 500 µg/mL

Nc1nc2c(ncn2COCCO)c(=O)[nH]1 [Acyclovir]
MIC [1]: 15.6 µg/mL (≈ 69.3 µM)
MIC [2]: 15.6 µg/mL (≈ 69.3 µM)

Nc1nc2nc[nH]c2c(=O)[nH]1 [Gua, guanine]
Hill coefficient [6]: 3.5
Vmax [6]: 2.7 ± 0.1 µmol/min/mg
S0.5 ([6]; Hill equation): 107.6 ± 6.2 µM

Cn1c(=O)c2c(ncn2CC(O)CO)n(C)c1=O (stereo not shown) [7-(2,3-dihydroxypropyl)theophylline]
MIC [1]: > 500 µg/mL
MIC [2]: > 500 µg/mL

CC(C)(C)C(=O)OCOP(=O)(COCCn1cnc2c(N)ncnc21)OCOC(=O)C(C)(C)C [Adefovir depivoxil]
thyA mutant MIC ([1]; minimal concentration producing 90% inhibition, thyA mutant Mpn): > 500 µg/mL
Wild type MIC [2, 8]: > 500 µg/mL

Nc1ccn([C@@H]2CS[C@H](CO)O2)c(=O)n1 [Lamivudine]
MIC [1]: > 500 µg/mL
MIC [2]: > 500 µg/mL

Cn1cnc([N+](=O)[O-])c1Sc1ncnc2nc[nH]c12 [Azathioprine]
MIC [1]: > 500 µg/mL
MIC [2]: > 500 µg/mL

— article PMC3750255, “Inhibition of Mycoplasma pneumoniae growth by FDA-approved anticancer and antiviral nucleoside and nucleobase analogs” (BMC Microbiology, 2013)
